# Laboratory results published in patent publication US4007282A, “Lowering lipid and sugar levels in the blood with a bis(4-hydroxyphenyl)alkanoic acid or ester thereof” (Hoechst Aktiengesellschaft, priority 1972, dated 1977).
# Like-named read-outs stand apart in the source and are kept apart here.
# Tests used:
# [1] = tested on: hypertriglyceridemia induced by carbohydrates in male rats; test: Action on the hypertriglyceridemia induced by carbohydrates (fructose) in male rats; assay type: in vivo; conditions: Rattus norvegicus, 72 h, 3-day oral pre-treatment, vs untreated control, read-out: Change in percentage of hypertriglyceridemia induced by carbohydrates
# normolipemic rats = test: Reduction of serum lipid values in normolipemic rats (8 days oral); assay type: in vivo, rat; conditions: 8 doses, male rats; for serum cholesterol, change in percentage (A: referred to the initial value) / serum triglyceride, change in percentage (A: referred to the initial value): column A; for serum cholesterol, change in percentage (B: referred to the untreated control group) / serum triglyceride, change in percentage (B: referred to the untreated control group): column B
# Procedure: 1. Male rats having a normal serum lipid content were treated for eight days with different daily doses mentioned in Table 1. The values given in that Table stand for a change in the serum concentrations of certain lipid classes. The doses administered per os by means of an esophageal sound were 100, 30 and 10 mg/kg/day. Generally, prior to and after the treatment, blood samples were taken and the concentration of cholesterol in the serum was determined according to the method of Lauber and Richterich and that of triglycerides according to the method of Eggstein and Kreutz. In the examples of the following Table 1, the changes in the serum lipid values due to the treatment with the substances of the invention are defined as follows:
# a. The changes in percent in the final value of the treated group, referred to the initial value of the treated group, the initial value being 100 percent, and
# b. the change in the final value of the treated group, referred to the final value of an accompanying untreated control group, the untreated control group's value being defined as 100 percent. Thus, the value given in columns A is the change in percentage referred to the initial value, whereas the value given in columns B is the change in percentage of the treated group, referred to the untreated control group.
# in vivo = conditions: mouse, po
# [2] = tested on: dietetic-medicamentous hyperlipemia of male rats; test: Action on the dietetic-medicamentous hyperlipemia of male rats; assay type: in vivo; conditions: Rattus norvegicus, po, 192 h, 100 mg/kg/day p.o., 8 days, male rats on cholesterol diet
# Excerpt: All the animals were fed with a diet food containing 2% of cholesterol, 2% of sodium cholate, 0.3% of methyl-thiouracil, 20% of coco fat and 44% of cane sugar. The serum lipid concentration of the animals treated with the compounds of the invention was compared to that of an untreated control group on the same diet, which diet causes the serum cholesteral concentration to rise within 1 week to about 10 times the initial value, that of the serum triglycerides to 3 times and that of the phospho-lipids in the serum to 4 times the initial value. The lipid phosphorus was determined according to the method of Messrs. Boehringer Mannheim W. Germany. At the same time as the diet was offered, the compounds of the invention were administered once a day to groups of rats, each containing 10 animals, over a period of 8 days by means of an esophageal sound. The change in percentage in the serum lipid concentration as compared to the control group (diet without active substance) is indicated in Table 2.
# [3] = tested on: rats that had been fed fructose doses; test: Hypoglycemic activity: lowering of the blood sugar level in rats fed fructose doses; assay type: in vivo, rat; conditions: 100 mg/kg once a day over 3 days, 24 hours after last administration, vs placebo control group
# Procedure: The hypoglycemic activity of some bis(4-hydroxy-phenyl) alkanoic acid derivatives of formulae I and II could be established by administering once a day, over 3 days, 100 mg of the active compound per kg of test animal to rats that had been fed fructose doses and by taking blood samples 24 hours after the last administration in order to determine the blood sugar level by means of an autoanalyzer.
# The lowering of the blood sugar content indicated in following Table 4 refers to a control group treated with placebos (blank doses).
# mice = conditions: Table 3
# [4] = read-out: serum cholesterol, change in percentage as compared to the control group
# [5] = read-out: serum lipid phosphorus, change in percentage as compared to the control group
# [6] = read-out: serum triglyceride, change in percentage as compared to the control group
SMILES,change in vivo at 100 mg/kg [1] [%],"serum cholesterol, change in percentage (A: referred to the initial value) (normolipemic rats; 100 mg/kg/day p.o.) [%]","serum triglyceride, change in percentage (A: referred to the initial value) (normolipemic rats; 100 mg/kg/day p.o.) [%]","serum cholesterol, change in percentage (B: referred to the untreated control group) (normolipemic rats; 100 mg/kg/day p.o.) [%]","change in vivo at 100 mg/kg [2, 4] [%]","change in vivo at 100 mg/kg [2, 5] [%]","change in vivo at 100 mg/kg [2, 6] [%]",LD50 (in vivo) [mg/kg],also measured
"CCOC(=O)C(C)(C)Oc1ccc(Cl)cc1 [Clofibrat, reference compound]",-15,-22,-48,-15,0,-12,-27,,"serum triglyceride, change in percentage (B: referred to the untreated control group) (normolipemic rats; 100 mg/kg/day p.o.): -37%; LD50 (in vivo; LD50 mice p.o., mice, Table 3): 2000 to 2500 mg/kg; LD50 (in vivo; p.o. LD50 mice, mice, Table 2): 2000 to 25000 mg/kg"
"Cc1cc(C(C)(CC(=O)O)c2ccc(O)c(C)c2)ccc1O [Example 1, 3,3-Bis(4'-hydroxy-3'-methyl-phenyl)butanoic acid]",,,,,-11,-15,-18,,
"CC(C)(C)c1cc(C(C)(CC(=O)O)c2ccc(O)c(C(C)(C)C)c2)ccc1O [Example 2, 3,3-Bis(4'-hydroxy-3'-tert.-butyl-phenyl)butanoic acid]",,,,,-19,-9,-13,2000,change in vivo at 30 mg/kg [1]: -63%
"CC(C)(C)c1cc(C(C(=O)O)c2ccc(O)c(C(C)(C)C)c2)ccc1O [Example 4, Bis(4'-hydroxy-3'-tert.-butyl-phenyl)ethanoic acid]",,,,,-29,-25,-21,,
"CCCCOC(=O)C(c1ccc(O)c(C(C)(C)C)c1)c1ccc(O)c(C(C)(C)C)c1 [Example 5, Bis(4'-hydroxy-3'-tert.-butyl-phenyl)ethanoic acid n-butyl ester]",,,,,,,,,lowering of the blood sugar level in per cent [3]: -30 per cent
"CCCCOC(=O)CC(C)(c1ccc(O)c(C)c1)c1ccc(O)c(C)c1 [Example 8, 3,3-bis(4'-hydroxy-3'-methyl-phenyl)butanoic acid n-butyl ester]",,-43,-23,-26,-36,-37,-39,> 8000,"serum cholesterol, change in percentage (B: referred to the untreated control group) (normolipemic rats; 10 mg/kg/day p.o.): -13%; serum triglyceride, change in percentage (B: referred to the untreated control group) (normolipemic rats; 10 mg/kg/day p.o.): -25%; serum cholesterol, change in percentage (A: referred to the initial value) (normolipemic rats; 30 mg/kg/day p.o.): -14%; serum cholesterol, change in percentage (B: referred to the untreated control group) (normolipemic rats; 30 mg/kg/day p.o.): -16%; serum triglyceride, change in percentage (B: referred to the untreated control group) (normolipemic rats; 30 mg/kg/day p.o.): -22%; LD50 mice p.o. (mice): > 8000 mg/kg"
"CCCCNC(=O)CC(C)(c1ccc(O)c(C(C)(C)C)c1)c1ccc(O)c(C(C)(C)C)c1 [Example 13, 3,3-Bis(4'-hydroxy-3'-tert.-butyl-phenyl)butanoic acid n-butylamide]",,,,,,,,8000,change in vivo at 30 mg/kg [1]: -17%
"CC(C)(C)c1cc(C(C)(CCC(=O)O)c2ccc(O)c(C(C)(C)C)c2)ccc1O [Example 14, 4,4-Bis(4'-hydroxy-3'-tert.-butyl-phenyl)pentanoic acid]",,,,,-36,-25,-13,4000,
"CCCCOC(=O)CCC(C)(c1ccc(O)c(C(C)(C)C)c1)c1ccc(O)c(C(C)(C)C)c1 [Example 15, 4,4-Bis(4'-hydroxy-3'-tert.-butyl-phenyl)pentanoic acid n-butyl ester]",-28,-37,-36,-20,-57,-53,-34,> 8000,"serum triglyceride, change in percentage (A: referred to the initial value) (normolipemic rats; 10 mg/kg/day p.o.): -20%; serum triglyceride, change in percentage (B: referred to the untreated control group) (normolipemic rats; 10 mg/kg/day p.o.): -34%; serum cholesterol, change in percentage (A: referred to the initial value) (normolipemic rats; 30 mg/kg/day p.o.): -13%; serum triglyceride, change in percentage (A: referred to the initial value) (normolipemic rats; 30 mg/kg/day p.o.): -32%; serum cholesterol, change in percentage (B: referred to the untreated control group) (normolipemic rats; 30 mg/kg/day p.o.): -10%; serum triglyceride, change in percentage (B: referred to the untreated control group) (normolipemic rats; 30 mg/kg/day p.o.): -37%; serum triglyceride, change in percentage (B: referred to the untreated control group) (normolipemic rats; 100 mg/kg/day p.o.): -13%; LD50 mice p.o. (mice): > 8000 mg/kg"
"CC(C)(C)c1cc(C(C)(CC(=O)OCCOC(=O)CC(C)(c2ccc(O)c(C(C)(C)C)c2)c2ccc(O)c(C(C)(C)C)c2)c2ccc(O)c(C(C)(C)C)c2)ccc1O [Example 16, Bis [3,3-bis(4'-hydroxy-3'-tert.-butyl-phenyl)butanoic acid] glycol ester]",,-20,-27,-21,,,,,"change in vivo at 30 mg/kg [1]: -24%; serum cholesterol, change in percentage (A: referred to the initial value) (normolipemic rats; 30 mg/kg/day p.o.): -10%; serum cholesterol, change in percentage (B: referred to the untreated control group) (normolipemic rats; 30 mg/kg/day p.o.): -15%; serum triglyceride, change in percentage (B: referred to the untreated control group) (normolipemic rats; 30 mg/kg/day p.o.): -32%; serum triglyceride, change in percentage (B: referred to the untreated control group) (normolipemic rats; 100 mg/kg/day p.o.): -26%"
"CC(C)(C)c1cc(C(C)(CC(=O)OCCCCCCOC(=O)CC(C)(c2ccc(O)c(C(C)(C)C)c2)c2ccc(O)c(C(C)(C)C)c2)c2ccc(O)c(C(C)(C)C)c2)ccc1O [Example 17, Bis [3,3-bis(4'-hydroxy-3'-tert.-butyl-phenyl)butanoic acid]hexane-diol-1,6ester]",-10,,,,,,,> 8000,lowering of the blood sugar level in per cent [3]: -18 per cent
"CC(C)(C)c1cc(C(C)(CCC(=O)OCCOC(=O)CCC(C)(c2ccc(O)c(C(C)(C)C)c2)c2ccc(O)c(C(C)(C)C)c2)c2ccc(O)c(C(C)(C)C)c2)ccc1O [Example 18, Bis [4,4-bis(4'hydroxy-3'-tert.-butyl-phenyl)pentanoic acid] glycol ester]",-46,-48,-51,-33,-36,-37,-19,4340,"change in vivo at 30 mg/kg [1]: -34%; serum triglyceride, change in percentage (B: referred to the untreated control group) (normolipemic rats; 100 mg/kg/day p.o.): -17%"
"CC(CCC(=O)O)(c1ccc(O)cc1)c1ccc(O)cc1 [Example 19, 4,4-Bis(4'-hydroxy-phenyl)pentanoic acid]",-27,,,,-17,-17,-28,,lowering of the blood sugar level in per cent [3]: -20 per cent
"CC(C)(C)c1cc(C(C)(CC(=O)OCCOC(=O)CC(C)(c2cc(Br)c(O)c(C(C)(C)C)c2)c2cc(Br)c(O)c(C(C)(C)C)c2)c2cc(Br)c(O)c(C(C)(C)C)c2)cc(Br)c1O [Example 21, Bis [3,3-bis(4'-hydroxy-3'-tert.-butyl-5'-bromophenyl)butanoic acid] glycol ester]",,,,,,,,4090,
